Test results from ChEMBL document CHEMBL3885881, “DrugMatrix”.

Species on record: Rattus norvegicus
Assay: DrugMatrix - Regimen: Daily Repeat
Type: toxicity, organism-based, Sprague-Dawley
Design: regimen Daily Repeat, gender Male, age 6-8 weeks
Conditions: in vivo, po, route oral GAVAGE, vehicle 100 % WATER; for ABSOLUTE BASOPHIL / ABSOLUTE EOSINOPHIL / ABSOLUTE LYMPHOCYTE / ABSOLUTE MONOCYTE / ABSOLUTE SEGMENTED NEUTROPHIL / BASOPHIL / EOSINOPHIL / ERYTHROCYTE COUNT / HEMATOCRIT / HEMOGLOBIN / LEUKOCYTE COUNT / LYMPHOCYTE / MEAN CORPUSCULAR HEMOGLOBIN / MEAN CORPUSCULAR HEMOGLOBIN CONCENTRATION / MEAN CORPUSCULAR VOLUME / MONOCYTE / NEUTROPHIL / NUCLEATED RED BLOOD CELLS / PLATELET COUNT: tissue Blood; for ALANINE AMINOTRANSFERASE / ALBUMIN / ALKALINE PHOSPHATASE / ASPARTATE AMINOTRANSFERASE / BLOOD UREA NITROGEN / CARBON DIOXIDE / CHLORIDE / CHOLESTEROL / CREATINE PHOSPHOKINASE / CREATININE / GLUCOSE / LACTATE DEHYDROGENASE / LIPASE / PHOSPHORUS / POTASSIUM / SODIUM / TOTAL BILIRUBIN / TOTAL PROTEIN / URIC ACID: tissue Plasma
[1] = 0 mg/kg, 72 h, dose level Control, time 3 day
[2] = 0 mg/kg, 120 h, dose level Control, time 5 day
[3] = 900 mg/kg, 72 h, dose level Low, time 3 day

Clc1ccc(C(c2ccccc2Cl)C(Cl)Cl)cc1 (centres undefined) [MITOTANE]
ABSOLUTE BASOPHIL [1]: 0 CELLS/uL
ABSOLUTE EOSINOPHIL [1]: 58.83 CELLS/uL
ABSOLUTE LYMPHOCYTE [1]: 11823.5 CELLS/uL
ABSOLUTE MONOCYTE [1]: 169 CELLS/uL
ABSOLUTE SEGMENTED NEUTROPHIL [1]: 815.33 CELLS/uL
BASOPHIL [1]: 0%
EOSINOPHIL [1]: 0.5%
ERYTHROCYTE COUNT [1]: 5.52 x10E6/uL
HEMATOCRIT [1]: 35.77%
HEMOGLOBIN [1]: 14.28 G/DL
LEUKOCYTE COUNT [1]: 12.87 x10E3/uL
LYMPHOCYTE [1]: 91.67%
MEAN CORPUSCULAR HEMOGLOBIN [1]: 25.92 pg
MEAN CORPUSCULAR HEMOGLOBIN CONCENTRATION [1]: 39.95 G/DL
MEAN CORPUSCULAR VOLUME [1]: 64.85 fL
MONOCYTE [1]: 1.33%
NEUTROPHIL [1]: 6.5%
NUCLEATED RED BLOOD CELLS [1]: 0 /100WBC
PLATELET COUNT [1]: 1246.17 x10E3/uL
ALANINE AMINOTRANSFERASE [1]: 66 u/L
ALBUMIN [1]: 4.25 G/DL
ALKALINE PHOSPHATASE [1]: 416 u/L
ASPARTATE AMINOTRANSFERASE [1]: 106.17 u/L
BLOOD UREA NITROGEN [1]: 12.67 mg/dL
CARBON DIOXIDE [1]: 31.83 mmol/L
CHLORIDE [1]: 102.5 MEQ/L
CHOLESTEROL [1]: 69 mg/dL
CREATINE PHOSPHOKINASE [1]: 601.83 u/L
CREATININE [1]: 0.18 mg/dL
GLUCOSE [1]: 154.5 mg/dL
LACTATE DEHYDROGENASE [1]: 301.83 u/L
LIPASE [1]: 11.17 u/L
PHOSPHORUS [1]: 12.08 mg/dL
POTASSIUM [1]: 6.12 MEQ/L
SODIUM [1]: 145.2 MEQ/L
TOTAL BILIRUBIN [1]: 0.17 mg/dL
TOTAL PROTEIN [1]: 6.1 G/DL
URIC ACID [1]: 1.57 mg/dL
ABSOLUTE BASOPHIL [2]: 0 CELLS/uL
ABSOLUTE EOSINOPHIL [2]: 19.33 CELLS/uL
ABSOLUTE LYMPHOCYTE [2]: 12577.83 CELLS/uL
ABSOLUTE MONOCYTE [2]: 106.33 CELLS/uL
ABSOLUTE SEGMENTED NEUTROPHIL [2]: 896.5 CELLS/uL
BASOPHIL [2]: 0%
EOSINOPHIL [2]: 0.17%
ERYTHROCYTE COUNT [2]: 5.84 x10E6/uL
HEMATOCRIT [2]: 36.88%
HEMOGLOBIN [2]: 14.48 G/DL
LEUKOCYTE COUNT [2]: 13.6 x10E3/uL
LYMPHOCYTE [2]: 92.17%
MEAN CORPUSCULAR HEMOGLOBIN [2]: 24.85 pg
MEAN CORPUSCULAR HEMOGLOBIN CONCENTRATION [2]: 39.3 G/DL
MEAN CORPUSCULAR VOLUME [2]: 63.23 fL
MONOCYTE [2]: 0.83%
NEUTROPHIL [2]: 6.83%
NUCLEATED RED BLOOD CELLS [2]: 0 /100WBC
PLATELET COUNT [2]: 1223.5 x10E3/uL
ALANINE AMINOTRANSFERASE [2]: 55.33 u/L
ALBUMIN [2]: 4.08 G/DL
ALKALINE PHOSPHATASE [2]: 355.5 u/L
ASPARTATE AMINOTRANSFERASE [2]: 87.67 u/L
BLOOD UREA NITROGEN [2]: 15.33 mg/dL
CARBON DIOXIDE [2]: 33.83 mmol/L
CHLORIDE [2]: 99.67 MEQ/L
CHOLESTEROL [2]: 72.17 mg/dL
CREATINE PHOSPHOKINASE [2]: 268.33 u/L
CREATININE [2]: 0.15 mg/dL
GLUCOSE [2]: 152.5 mg/dL
LACTATE DEHYDROGENASE [2]: 212.67 u/L
LIPASE [2]: 10.83 u/L
PHOSPHORUS [2]: 11.65 mg/dL
POTASSIUM [2]: 6.73 MEQ/L
SODIUM [2]: 142.43 MEQ/L
TOTAL BILIRUBIN [2]: 0.23 mg/dL
TOTAL PROTEIN [2]: 6.07 G/DL
URIC ACID [2]: 1.7 mg/dL
ABSOLUTE BASOPHIL [3]: 0 CELLS/uL
ABSOLUTE EOSINOPHIL [3]: 0 CELLS/uL
ABSOLUTE LYMPHOCYTE [3]: 16524 CELLS/uL
ABSOLUTE MONOCYTE [3]: 175 CELLS/uL
ABSOLUTE SEGMENTED NEUTROPHIL [3]: 1001 CELLS/uL
BASOPHIL [3]: 0%
EOSINOPHIL [3]: 0%
ERYTHROCYTE COUNT [3]: 5.49 x10E6/uL
HEMATOCRIT [3]: 34.53%
HEMOGLOBIN [3]: 13.73 G/DL
LEUKOCYTE COUNT [3]: 17.7 x10E3/uL
LYMPHOCYTE [3]: 93.33%
MEAN CORPUSCULAR HEMOGLOBIN [3]: 25.03 pg
MEAN CORPUSCULAR HEMOGLOBIN CONCENTRATION [3]: 39.8 G/DL
MEAN CORPUSCULAR VOLUME [3]: 62.9 fL
MONOCYTE [3]: 1%
NEUTROPHIL [3]: 5.67%
NUCLEATED RED BLOOD CELLS [3]: 0 /100WBC
PLATELET COUNT [3]: 1289.67 x10E3/uL
ALANINE AMINOTRANSFERASE [3]: 54 u/L
ALBUMIN [3]: 4.23 G/DL
ALKALINE PHOSPHATASE [3]: 331.33 u/L
ASPARTATE AMINOTRANSFERASE [3]: 74.67 u/L
BLOOD UREA NITROGEN [3]: 13 mg/dL
CARBON DIOXIDE [3]: 33.67 mmol/L
CHLORIDE [3]: 101.67 MEQ/L
CHOLESTEROL [3]: 70.33 mg/dL
CREATINE PHOSPHOKINASE [3]: 271 u/L
CREATININE [3]: 0.45 mg/dL
GLUCOSE [3]: 144.67 mg/dL
LACTATE DEHYDROGENASE [3]: 135 u/L
LIPASE [3]: 12.67 u/L
PHOSPHORUS [3]: 12.8 mg/dL
POTASSIUM [3]: 6.89 MEQ/L
SODIUM [3]: 145.93 MEQ/L
TOTAL BILIRUBIN [3]: 0.1 mg/dL
TOTAL PROTEIN [3]: 6.03 G/DL
URIC ACID [3]: 1.6 mg/dL
